In patent publication US12268702B2, “Antitumor pharmaceutical composition comprising azvudine and chemotherapeutic agent” (HENAN GENUINE BIOTECH CO., LTD., priority 2023, dated 2025):

Assays:
[1] = test system: Colo 205 human colon cancer model; assay: Colo 205 human colon cancer subcutaneous xenograft tumor model; format: in vivo
Experimental: Experimental animals were 68 (48 plus 20 spare mice) BALB/c female nude mice, 7-8 weeks old (the age of mice at the time of tumor cell inoculation) and weighing 15.7-20.7 g, which were purchased from Beijing VitalRiver Experimental Animal Technology Co., Ltd. Breeding environment was SPF grade. The experimental animals were all kept in an independent ventilated box with constant temperature and humidity. The temperature of the breeding room was 20-26° C., the humidity was 40-70%. The breeding room was ventilated 10-20 times per hour. The alternating time of day and night was 12 h/12 h. The mice were continuously supplied with cobalt 60 radiation sterilized mouse complete pellet feed, and had free access to the feed. The mice drank tap water (available after sterilization with high-pressure steam), which was continuously supplied using a water-drinking bottle, and had free access to water. The mouse box was a polysulfone mouse box, which was used after sterilization under high pressure, with a size of 325 mm×210 mm×180 mm.
Colo 205 cells were cultured in RPMI1640 medium containing 10% fetal bovine serum. Colo 205 cells in the exponential growth phase were collected, resuspended in PBS to an appropriate concentration and mixed with Matrigel at a ratio of 1:1. The resulting mixture was used for subcutaneous inoculation of tumor in mice. 5×10^6 Colo 205 cells were subcutaneously inoculated on the right side of female mice. The day of inoculation was defined as Day 0. When the average tumor volume reached 110.26 mm^3, the mice were randomly divided into groups according to tumor size.
Relative tumor proliferation rate, T/C %, refers to the percentage value of the relative tumor volume or tumor weight of the treatment group and the control group at a certain time point, which was calculated as follows:
T/C %=TRTV/CRTV×100% (TRTV: the average RTV of the treatment group; CRTV: the average RTV of the vehicle control group; RTV=Vt/V0, where V0 is the tumor volume of the animal when grouped, and Vt is the tumor volume of the animal after treatment); • or T/C %=TTW/CTW×100% (TTW: the average tumor weight of the treatment group at the end of the experiment; CTW: the average tumor weight of the vehicle control group at the end of the experiment). • Relative tumor inhibition rate, TGI (%), was calculated according to the formula as follows: TGI %=(1−T/C)×100%. (T and C are the relative tumor volumes (RTV) or tumor weights (TW) of the treatment group and the control group at a specific time point).

[2] = test system: LoVo xenograft tumor model; assay: LoVo human colon cancer subcutaneous xenograft tumor model; format: in vivo; details: 21st day of administration, azvudine 1 mpk, capecitabine 400 mpk, combination 1 + 400 mpk; for Tumor volume (mm^3): BALB/c nude mice, p.o. QD x 3 weeks
Experimental: Human colon cancer cells LoVo (Cat. No.: ECACC-87060101) were cultured in vitro as a monolayer in F12K medium containing 10% fetal bovine serum, 100 U/mL penicillin and 100 μg/mL streptomycin, in a 37° C. and 5% CO2 incubator. The cells were routinely digested with trypsin-EDTA and passaged twice a week. When the cell saturation reached 80%-90% and the cell number achieved the requirement, the cells were collected, counted and inoculated.
0.1 mL)(10×10^6) of LoVo cells were subcutaneously inoculated on the right back of each mouse. The grouping administration was started when the average tumor volume reached about 147 mm^3.
The tumor volume changes and the tumor weight changes in each group (on the 21st day of administration) after administration of test drugs for treating BALB/c nude mice with Lovo cell subcutaneous xenograft tumor are shown in Table 5 and Table 6 respectively.

[3] = based on tumor volume, 25th day after inoculation, p.o. QD x 3 weeks, azvudine 1 mpk, capecitabine 400 mpk, combination 1 + 400 mpk
[4] = based on tumor weight, azvudine 1 mpk, capecitabine 400 mpk, combination 1 + 400 mpk

In the case of [N-]=[N+]=N[C@]1(CO)O[C@@H](n2ccc(N)nc2=O)[C@@H](F)[C@@H]1O [Azvudine, azvudine], the Tumor volume ([1]; 25th day after inoculation (20th day after grouping), BALB/c nude mice, p.o. QD x 3 weeks, azvudine 1 mpk, capecitabine 400 mpk, combination 1 + 400 mpk) is reported as 985.14 ± 108.58(6), the average tumor volume ([1]; 25th day after tumor inoculation (20th day after grouping), azvudine 1 mg/kg, capecitabine 400 mg/kg, combination 1 + 400 mg/kg) is reported as 985.14 mm^3 and the “T/C (%)” value [1, 3] is reported as 67.57%. For the same compound, the “TGI (%)” value [1, 3] was 32.43%, the “T/C (%)” value [1, 4] was 28.19% and the TGI [1, 4] was 71.81. For the same compound, the “Tumor weight (mg)” value ([1]; end of experiment, p.o. QD x 3 weeks, azvudine 1 mpk, capecitabine 400 mpk, combination 1 + 400 mpk) was 986.10 ± 107.78(6) mg, the “Tumor volume (mm^3)” value [2] was 902 ± 163 mm^3 and the “Tumor volume (mm^3)” value ([2]; listed as azvudine) was 902 mm^3. For the same compound, the “Tumor weight” value [2] was 0.937 ± 0.142 g, the “T/C (%)” value ([2]; based on tumor volume) was 62.00% and the “TGI (%)” value ([2]; based on tumor volume) was 43.40%. For the same compound, the “T/C (%)” value ([2]; based on tumor weight) was 66.37%.
